Experimental data as given in patent EP0908457B1, “3-(1,2-benzisothiazol- and isoxazol-5-Y1)-2,4(1H,3H)-pyrimidinedione or thione and 3-(1,2-benzisothiazol- and isoxazol-5-y1)-4(3H)-pyrimidinone or thione herbicidal agents” (BASF AKTIENGESELLSCHAFT, priority 1997, dated 1999).

Columns and labels:
[1] = tested on: Echinochloa oryzoides (Ard.) Fritsch.; experiment: Preemergence weed control under flooded paddy conditions, ECHORC (Watergrass (Calif.)); type: in vivo; conditions: preemergence weeds, flooded paddy; for ECHORC: herbicidal effect rating 0-9, three to four weeks after treatment; for herbicidal effect rating, ECHORC: rated three to four weeks after treatment; for herbicidal effect rating, ECHORC: meaning of each grade not given here
[2] = tested on: Cyperus iria; experiment: Preemergence weed control under flooded paddy conditions, CYPIR (Rice Flatsedge); type: in vivo; conditions: preemergence weeds, flooded paddy; for CYPIR: herbicidal effect rating 0-9, three to four weeks after treatment; for herbicidal effect rating, CYPIR: rated three to four weeks after treatment; for herbicidal effect rating, CYPIR: meaning of each grade not given here
[3] = tested on: Cyperus serotinus, Rottb.; experiment: Preemergence weed control under flooded paddy conditions, CYPSE (Flatsedge); type: in vivo; conditions: preemergence weeds; for CYPSE: herbicidal effect rating 0-9, three to four weeks after treatment; for herbicidal effect rating, CYPSE: rated three to four weeks after treatment; for herbicidal effect rating, CYPSE: meaning of each grade not given here
[4] = tested on: Monochoria vaginalis, Presl.; experiment: Preemergence weed control under flooded paddy conditions, MOOVA (Monochoria); type: in vivo; conditions: preemergence weeds, flooded paddy, herbicidal effect rating 0-9, three to four weeks after treatment
[5] = tested on: Oryza sativa, (L.) Tebonnet; experiment: Rice tolerance to post-transplant applications under flooded paddy conditions (Example 187), ORYSAT (Rice, Tebonnet); conditions: for ORYSAT: herbicidal effect rating 0-9, three to four weeks after treatment; for herbicidal effect rating ORYSAT: rated three to four weeks after treatment
[6] = tested on: Sagittaria pygmaea, L.; experiment: Preemergence weed control under flooded paddy conditions, SAGPY (Arrowhead (Pygmaea)); type: in vivo; conditions: preemergence weeds, flooded paddy, rated three to four weeks after treatment; note: meaning of each grade not given here

CC(Cl)c1nsc2ccc(-n3c(=O)cc(C(F)(F)F)n(C)c3=O)cc12 (stereo not drawn) [Example 416, 2,4(1H,3H)-Pyrimidinedione, 3-[3-(1-chloroethyl)-1,2-benzisothiazol-5-yl]-1-methyl-6-(trifluoromethyl)-]
ECHORC ([1]; 0.0320 kg/ha): 0.0
ECHORC ([1]; 0.0620 kg/ha): 3.0
ECHORC ([1]; 0.1250 kg/ha): 3.0
ECHORC ([1]; 0.2500 kg/ha): 9.0
CYPIR ([2]; 0.0320 kg/ha): 4.0
CYPIR ([2]; 0.0620 kg/ha): 4.0
CYPIR ([2]; 0.1250 kg/ha): 4.0
CYPIR ([2]; 0.2500 kg/ha): 8.0
CYPSE ([3]; 0.0320 kg/ha): 0.0
CYPSE ([3]; 0.0620 kg/ha): 0.0
CYPSE ([3]; 0.1250 kg/ha): 0.0
CYPSE ([3]; 0.2500 kg/ha): 3.0
MOOVA ([4]; 0.0320 kg/ha): 7.0
MOOVA ([4]; 0.0620 kg/ha): 7.0
MOOVA ([4]; 0.1250 kg/ha): 7.0
MOOVA ([4]; 0.2500 kg/ha): 9.0
ORYSAT ([5]; 0.0320 kg/ha): 6.0
ORYSAT ([5]; 0.0620 kg/ha): 7.0
ORYSAT ([5]; 0.1250 kg/ha): 9.0
ORYSAT ([5]; 0.2500 kg/ha): 9.0

CC(OS(=O)(=O)c1ccccc1)c1nsc2ccc(-n3c(=O)cc(C(F)(F)F)n(C)c3=O)cc12 (stereo not drawn) [Example 415, 2,4(1H,3H)-Pyrimidinedione, 3-[3-(1-hydroxyethyl)-1,2-benzisothiazol-5-yl]-1-methyl-6-(trifluoromethyl)-, benzenesulfonate (ester)]
ECHORC ([1]; 0.0320 kg/ha): 0.0
ECHORC ([1]; 0.0620 kg/ha): 0.0
ECHORC ([1]; 0.1250 kg/ha): 3.0
ECHORC ([1]; 0.2500 kg/ha): 9.0
CYPIR ([2]; 0.0320 kg/ha): 0.0
CYPIR ([2]; 0.0620 kg/ha): 0.0
CYPIR ([2]; 0.1250 kg/ha): 2.0
CYPIR ([2]; 0.2500 kg/ha): 6.0
CYPSE ([3]; 0.0320 kg/ha): 0.0
CYPSE ([3]; 0.0620 kg/ha): 0.0
MOOVA ([4]; 0.0320 kg/ha): 5.0
MOOVA ([4]; 0.0620 kg/ha): 5.0
MOOVA ([4]; 0.1250 kg/ha): 5.0
MOOVA ([4]; 0.2500 kg/ha): 8.0
ORYSAT ([5]; 0.0320 kg/ha): 3.0
ORYSAT ([5]; 0.0620 kg/ha): 4.0
ORYSAT ([5]; 0.1250 kg/ha): 5.0
ORYSAT ([5]; 0.2500 kg/ha): 9.0

COCCOC(=O)c1nsc2ccc(-n3c(=O)cc(C(F)(F)F)n(C)c3=O)cc12 [Example 411, 1,2-Benzisothiazole-3-carboxylic acid, 5-[3,6-dihydro-3-methyl-2,6-dioxo-4-(trifluoromethyl)-1(2H)-pyrimidinyl]-, 2-methoxyethyl ester]
ECHORC ([1]; 0.0320 kg/ha): 0.0
ECHORC ([1]; 0.0620 kg/ha): 0.0
ECHORC ([1]; 0.1250 kg/ha): 0.0
ECHORC ([1]; 0.2500 kg/ha): 6.0
CYPIR ([2]; 0.0320 kg/ha): 0.0
CYPIR ([2]; 0.0620 kg/ha): 2.0
CYPIR ([2]; 0.1250 kg/ha): 3.0
CYPIR ([2]; 0.2500 kg/ha): 9.0
CYPSE ([3]; 0.0320 kg/ha): 0.0
CYPSE ([3]; 0.0620 kg/ha): 2.0
CYPSE ([3]; 0.1250 kg/ha): 7.0
CYPSE ([3]; 0.2500 kg/ha): 9.0
MOOVA ([4]; 0.0320 kg/ha): 9.0
MOOVA ([4]; 0.0620 kg/ha): 9.0
MOOVA ([4]; 0.1250 kg/ha): 9.0
MOOVA ([4]; 0.2500 kg/ha): 9.0
ORYSAT ([5]; 0.0320 kg/ha): 0.0
ORYSAT ([5]; 0.0620 kg/ha): 0.0
ORYSAT ([5]; 0.1250 kg/ha): 2.0
ORYSAT ([5]; 0.2500 kg/ha): 5.0

COC(=O)COc1ccc(OC)cc1-c1nsc2ccc(-n3c(=O)cc(C(F)(F)F)n(C)c3=O)cc12 [Example 347, Acetic acid, {2-{5-[3,6-dihydro-3-methyl-2,6-dioxo-4-(trifluoromethyl)-1(2H)-pyrimidinyl]-1,2-benzisothiazol-3-yl}-4-methoxyphenoxy}-, methyl ester]
herbicidal effect rating, ECHORC ([1]; Rate 0.0320 kg/ha): 7.0
herbicidal effect rating, ECHORC ([1]; Rate 0.0620 kg/ha): 9.0
herbicidal effect rating, ECHORC ([1]; Rate 0.1250 kg/ha): 9.0
herbicidal effect rating, ECHORC ([1]; Rate 0.2500 kg/ha): 9.0
herbicidal effect rating, CYPIR ([2]; Rate 0.0320 kg/ha): 7.0
herbicidal effect rating, CYPIR ([2]; Rate 0.0620 kg/ha): 9.0
herbicidal effect rating, CYPIR ([2]; Rate 0.1250 kg/ha): 9.0
herbicidal effect rating, CYPIR ([2]; Rate 0.2500 kg/ha): 9.0
herbicidal effect rating, CYPSE ([3]; Rate 0.0320 kg/ha): 0.0
herbicidal effect rating, CYPSE ([3]; Rate 0.0620 kg/ha): 0.0
herbicidal effect rating, CYPSE ([3]; Rate 0.1250 kg/ha): 4.0
herbicidal effect rating, CYPSE ([3]; Rate 0.2500 kg/ha): 7.0
herbicidal effect rating, SAGPY ([6]; Rate 0.0320 kg/ha): 2.0
herbicidal effect rating, SAGPY ([6]; Rate 0.0620 kg/ha): 3.0
herbicidal effect rating, SAGPY ([6]; Rate 0.1250 kg/ha): 4.0
herbicidal effect rating, SAGPY ([6]; Rate 0.2500 kg/ha): 5.0
herbicidal effect rating ORYSAT ([5]; Rate 0.0320 kg/ha): 3.0
herbicidal effect rating ORYSAT ([5]; Rate 0.0620 kg/ha): 6.0
herbicidal effect rating ORYSAT ([5]; Rate 0.1250 kg/ha): 7.0
herbicidal effect rating ORYSAT ([5]; Rate 0.2500 kg/ha): 9.0
